Assay results from patent US9718790B2, “Triazine derivative and pharmaceutical composition having an analgesic activity comprising the same” (SHIONOGI & CO., LTD., priority 2010, dated 2017).
pIC50: −log10 of the molar value.

Target: human P2X3 receptor (Homo sapiens (Human), UniProt P56373)
Test: Evaluation of human P2X3 receptor inhibitory activity (Fluo-3 calcium fluorescence, FDSS 3000, ATP stimulation);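 also: stimulus was 50 nM ATP with fluorescence followed for 3 min, and the response per well was peak post-ATP fluorescence divided by the reading at measurement start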
Type: cell-based
Conditions: human P2X3 receptor, Test Example 1

Chain of human P2X3 receptor (P56373 whole entry): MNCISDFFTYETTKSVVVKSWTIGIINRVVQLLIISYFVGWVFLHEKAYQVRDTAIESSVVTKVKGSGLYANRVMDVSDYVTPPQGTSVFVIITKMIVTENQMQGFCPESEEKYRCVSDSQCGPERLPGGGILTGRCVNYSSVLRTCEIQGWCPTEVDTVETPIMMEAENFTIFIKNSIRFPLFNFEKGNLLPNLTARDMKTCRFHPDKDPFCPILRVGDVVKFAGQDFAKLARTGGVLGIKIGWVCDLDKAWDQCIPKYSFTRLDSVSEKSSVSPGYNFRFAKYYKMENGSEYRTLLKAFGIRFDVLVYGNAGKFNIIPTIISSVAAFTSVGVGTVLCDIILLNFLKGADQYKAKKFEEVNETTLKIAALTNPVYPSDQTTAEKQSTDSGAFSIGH

Structure (SMILES) | pIC50
CC(C)Oc1ccc(-n2c(NCc3ccc(Cl)cc3)nc(=S)n(C(C)C)c2=O)cc1 [Compound I-2255] | 6.27
CC(C)Oc1ccc(/N=c2\[nH]c(=S)n(C(C)C)c(=O)n2Cc2ccc(Cl)cc2)cc1Cl [Compound I-2257, 1-(4-chlorobenzyl)-3-isopropyl-6-(3-chloro-4-isopropoxyphenylimino)-4-thioxo-1,3,5-triazinane-2-one] | 6.82
CCn1c(=S)[nH]/c(=N\c2ccc(Oc3ccnc(O)c3)cc2)n(Cc2ccc(Cl)cc2)c1=O [Compound I-2258] | 8.52
CCn1c(=S)[nH]/c(=N\c2ccc(Oc3cncc(C(=O)OC)c3)cc2)n(Cc2ccc(Cl)cc2)c1=O [Compound I-2262, 1-(4-chlorobenzyl)-3-ethyl-6-[4-(5-methoxycarbonyl-3-pyridyloxy)phenylimino]-4-thioxo-1,3,5-triazinane-2-one] | 7.77
CCn1c(=S)[nH]/c(=N\c2ccc(Oc3cncc(C(=O)O)c3)cc2)n(Cc2ccc(Cl)cc2)c1=O [Compound I-2263] | 8.40
CCn1c(SC)n/c(=N\c2ccc(Oc3cncc(C(=O)OC)c3)cc2)n(Cc2ccc(Cl)cc2)c1=O [Compound I-2264, 1-(4-chlorobenzyl)-3-ethyl-4-methylthio-6-[4-(5-methoxycarbonyl-3-pyridyloxy)phenylimino]-1,3,5-triazine-2-(1H)-one] | 6.25
CCn1c(=O)[nH]/c(=N\c2ccc(O[C@@H]3C[C@@H](C(=O)OC)N(C(=O)OC(C)(C)C)C3)cc2)n(Cc2ccc(Cl)cc2)c1=O [Compound I-2265] | 6.52
COC(=O)c1cccc(Oc2ccc(/N=c3\[nH]c(=O)n(C)c(=O)n3Cc3ccc(C)cc3)cc2)n1 [Compound I-2266] | 7.36
CCn1c(=O)[nH]/c(=N\c2ccc3nc(N(C)C)sc3c2)n(Cc2ccc(Cl)cc2)c1=O [Compound I-2267] | 6.48
Cc1ccc(Cn2c(=O)n(C)c(=O)[nH]/c2=N\c2ccc(Oc3cccc(C(=O)O)n3)cc2)cc1 [Compound I-2268] | 8.22
CCn1c(=O)[nH]/c(=N\c2ccc(Oc3ccc(C(=O)OC)nn3)cc2)n(Cc2ccc(Cl)cc2)c1=O [Compound I-2269] | 8.70
CCn1c(=O)[nH]/c(=N\c2ccc(Oc3cncc(C(=O)OC)n3)cc2)n(Cc2ccc(Cl)cc2)c1=O [Compound I-2270] | > 8.40
COC(=O)c1cccc(Oc2ccc(/N=c3\[nH]c(=O)n(C)c(=O)n3Cc3ccc(Cl)cc3)cc2)n1 [Compound I-2271] | 7.44
CCn1c(=O)[nH]/c(=N\c2ccc(Oc3ccc(C(=O)O)nn3)cc2)n(Cc2ccc(Cl)cc2)c1=O [Compound I-2273] | 7.92
Cn1c(=O)[nH]/c(=N\c2ccc(Oc3cccc(C(N)=O)n3)cc2)n(Cc2ccc(Cl)cc2)c1=O [Compound I-2274] | 8.30
CCn1c(=O)[nH]/c(=N\c2ccc(Oc3ccc(C(=O)OC)nc3)cc2)n(Cc2ccc(Cl)cn2)c1=O [Compound I-2275] | 8.00
CC(C)Oc1ccc(/N=c2\ncn(C(C)C)c(=O)n2Cc2ccc(Cl)cc2)cc1 [Compound I-2276, (E)-3-(4-chlorobenzyl)-4-(4-isopropoxyphenylimino)-1-isopropyl-3,4-dihydro-1,3,5-triazine-2(1H)-one] | 6.11
CCn1c(=O)[nH]/c(=N\c2ccc(O[C@H]3CN[C@H](C(=O)OC)C3)cc2)n(Cc2ccc(Cl)cc2)c1=O [Compound I-2277] | 6.97
CCn1c(=O)[nH]/c(=N\c2ccc(Oc3ccc(C(=O)O)nc3)cc2)n(Cc2ccc(Cl)cn2)c1=O [Compound I-2278] | 6.87
CCn1c(=O)[nH]/c(=N\c2ccc(Oc3ccc(C(N)=O)nc3)cc2)n(Cc2ccc(Cl)cn2)c1=O [Compound I-2279] | 7.48
CCn1c(=O)[nH]/c(=N\c2ccc3nc(N4CCC4)sc3c2)n(Cc2ccc(Cl)cc2)c1=O [Compound I-2280] | 6.90

Structure (SMILES) | pIC50
CCn1c(=O)[nH]/c(=N\c2ccc(Oc3cnc(C#N)nc3)cc2)n(Cc2ccc(Cl)cc2)c1=O [Compound I-2281] | 8.70
CCn1c(=O)[nH]/c(=N\c2ccc(Oc3cncc(C(=O)O)n3)cc2)n(Cc2ccc(Cl)cc2)c1=O [Compound I-2282] | > 8.40
CCn1c(=O)[nH]/c(=N\c2ccc(Oc3cncc(C(N)=O)n3)cc2)n(Cc2ccc(Cl)cc2)c1=O [Compound I-2284] | > 8.40
CCn1c(=O)[nH]/c(=N\c2ccc(Oc3cnc(C(=O)O)nc3)cc2)n(Cc2ccc(Cl)cc2)c1=O [Compound I-2285] | 7.82
CCn1c(=O)[nH]/c(=N\c2ccc(Oc3ccsn3)cc2)n(Cc2ccc(Cl)cc2)c1=O [Compound I-2286] | 8.30
CC1(C)OCC(Cn2c(=O)[nH]/c(=N\c3ccc(Oc4ccon4)cc3)n(Cc3ccc(Cl)cc3)c2=O)CO1 [Compound I-2287] | > 8.40
O=c1[nH]/c(=N\c2ccc(Oc3ccon3)cc2)n(Cc2ccc(Cl)cc2)c(=O)n1CCOC1CCCCO1 (centres unmarked) [Compound I-2288] | 9.00
CC1(C)OC[C@H](Cn2c(=O)[nH]/c(=N\c3ccc(Oc4ccon4)cc3)n(Cc3ccc(Cl)cc3)c2=O)O1 [Compound I-2289] | > 8.40
O=c1[nH]/c(=N\c2ccc(Oc3nccs3)cc2)n(Cc2ccc(Cl)cc2)c(=O)n1C[C@H](O)CO [Compound I-2294] | 8.30
CCn1c(=O)[nH]/c(=N\c2ccc(Oc3ccnc(C(=O)O)c3)c(OC)c2)n(Cc2ccc(Cl)cc2)c1=O [Compound I-2295] | > 8.40
CCn1c(=O)[nH]/c(=N\c2ccc(Oc3cnc(C(=O)O)cn3)cc2)n(Cc2ccc(Cl)cc2)c1=O [Compound I-2296] | 8.30
CCn1c(=O)[nH]/c(=N\[C@H]2CC[C@H](Oc3ccnc(C(=O)O)c3)CC2)n(Cc2ccc(Cl)cc2)c1=O [Compound I-2297] | 7.19
CCn1c(=O)[nH]/c(=N\c2ccc(Oc3cc(C#N)ccn3)cc2)n(Cc2ccc(C)cc2)c1=O [Compound I-2300] | 8.52
CSc1n/c(=N\c2ccc(OC(C)C)cc2)n(Cc2ccc(Cl)cc2)c(=O)n1C(C)C [Compound I-2301] | 6.36
CCn1c(=O)[nH]/c(=N\c2ccc(Oc3cccc(C#N)n3)cc2)n(Cc2ccc(Cl)cc2)c1=O [Compound I-2302] | 8.70
CCn1c(=O)[nH]/c(=N\c2ccc(Oc3cc(C(=O)O)ccn3)cc2)n(Cc2ccc(C)cc2)c1=O [Compound I-2303] | 8.15
CCn1c(=O)[nH]/c(=N\c2ccc(Oc3ccnc(NC(=O)OC(C)(C)C)c3)cc2)n(Cc2ccc(Cl)cc2)c1=O [Compound I-2304] | 7.54
CCn1c(=O)[nH]/c(=N\c2ccc(Oc3cccc(C#N)c3)cc2)n(Cc2ccc(Cl)cc2)c1=O [Compound I-2305, 1-(4-chlorobenzyl)-6-[4-(3-cyanophenoxy)phenylimino]-3-ethyl-1,3,5-triazinane-2,4-dion] | 8.40
CCn1c(=O)[nH]/c(=N\c2ccc(Oc3ccc(C#N)cn3)cc2)n(Cc2ccc(Cl)cc2)c1=O [Compound I-2306] | 8.70
COC(=O)c1cncc(Oc2ccc(/N=c3\[nH]c(=O)n(C4CC4)c(=O)n3Cc3ccc(Cl)cc3)cc2)c1 [Compound I-2308] | 8.52
CNC(=O)c1cc(Oc2ccc(/N=c3\[nH]c(=O)n(C4CC4)c(=O)n3Cc3ccc(Cl)cc3)cc2)ccn1 [Compound I-2309] | 8.70

Structure (SMILES) | pIC50
CCn1c(=O)[nH]/c(=N\c2ccc(Oc3ccnc(C#N)n3)cc2)n(Cc2ccc(Cl)cc2)c1=O [Compound I-2310] | 8.30
CCn1c(=O)[nH]/c(=N\c2ccc(Oc3nccc(C(N)=O)n3)cc2)n(Cc2ccc(Cl)cc2)c1=O [Compound I-2311] | 8.10
CCc1cc2cc(/N=c3\[nH]c(=O)n(CC4COC(C)(C)OC4)c(=O)n3Cc3ccc(Cl)cc3)ccc2o1 [Compound I-2312] | 8.30
CCc1cc2cc(/N=c3\[nH]c(=O)n(CC(CO)CO)c(=O)n3Cc3ccc(Cl)cc3)ccc2o1 [Compound I-2313] | 8.10
CCc1cc2cc(/N=c3\[nH]c(=O)n(C[C@H]4COC(C)(C)O4)c(=O)n3Cc3ccc(Cl)cc3)ccc2o1 [Compound I-2314] | 8.15
CCc1cc2cc(/N=c3\[nH]c(=O)n(C[C@H](O)CO)c(=O)n3Cc3ccc(Cl)cc3)ccc2o1 [Compound I-2315] | 7.77
CNCCCn1c(=O)[nH]/c(=N\c2ccc(OC(C)C)c(F)c2)n(Cc2ccc(Cl)cc2)c1=O [Compound I-2316] | 7.29
CC(=O)N(C)CCCn1c(=O)[nH]/c(=N\c2ccc(OC(C)C)c(F)c2)n(Cc2ccc(Cl)cc2)c1=O [Compound I-2317] | 8.52
CCn1c(=O)[nH]/c(=N\c2ccc(Oc3cncc(C#N)c3)cc2)n(Cc2ccc(Cl)cn2)c1=O [Compound I-2318] | 7.74
CCn1c(=O)[nH]/c(=N\c2ccc(Oc3nccc(C(=O)O)n3)cc2)n(Cc2ccc(Cl)cc2)c1=O [Compound I-2319] | 7.77
CCn1c(=O)[nH]/c(=N\c2ccc(Oc3ccc(C(=O)O)cn3)cc2)n(Cc2ccc(Cl)cc2)c1=O [Compound I-2320] | 8.22
CCn1c(=O)[nH]/c(=N\c2ccc3nc(Cl)sc3c2)n(Cc2ccc(Cl)cc2)c1=O [Compound I-2321] | 7.96
CCn1c(=O)[nH]/c(=N\c2ccc(Oc3ncc(C(=O)OC)cn3)cc2)n(Cc2ccc(Cl)cc2)c1=O [Compound I-2322] | 8.22
CCn1c(=O)[nH]/c(=N\c2ccc(Oc3ncc(C(=O)O)cn3)cc2)n(Cc2ccc(Cl)cc2)c1=O [Compound I-2323] | 7.80
CCn1c(=O)[nH]/c(=N\c2ccc3nc(OCC(=O)OC)sc3c2)n(Cc2ccc(Cl)cc2)c1=O [Compound I-2324] | 6.94
CCn1c(=O)[nH]/c(=N\c2ccc3nc(O)sc3c2)n(Cc2ccc(Cl)cc2)c1=O [Compound I-2325] | 7.33
CCn1c(=O)[nH]/c(=N\c2ccc3nc(OCC(=O)O)sc3c2)n(Cc2ccc(Cl)cc2)c1=O [Compound I-2326] | 6.97
CCn1c(=O)[nH]/c(=N\c2ccc(Oc3cccc(/C=C/C(=O)OC)c3)cc2)n(Cc2ccc(C)cc2)c1=O [Compound I-2327] | 8.10
COC(=O)/C=C/c1cccc(Oc2ccc(/N=c3\[nH]c(=O)n(C)c(=O)n3Cc3ccc(C)cc3)cc2)c1 [Compound I-2328] | 7.47
COC(=O)/C=C/c1cccc(Oc2ccc(/N=c3\[nH]c(=O)n(C)c(=O)n3Cc3ccc(Cl)cc3)cc2)c1 [Compound I-2329] | 7.15
